Assay results published in patent US7094760B2, “Peptides for treatment of inflammation and shock” (Salpep Biotechnology, Inc., priority 1996, dated 2006).

Columns and labels:
[1] = tested on: LPS (Salmonella typhosa)-induced hypotension in unoperated rats; assay: endotoxin (LPS)-induced hypotension, unoperated rats; assay type: in vivo, rat
Procedure: The animal model of endotoxic shock used involves intravenous injection of endotoxin (3.5 mg/kg of lipopolysaccharide (LPS) from Salmonella typhosa) into pentobarbital-anaesthetized Sprague-Dawley rats, to produce a fall in mean arterial blood pressure within 3 to 5 minutes. The endotoxin was injected slowly over 1 min. via the jugular vein, and mean arterial blood pressure in mm mercury (MABP) was monitored continuously for 60 min, with the average blood pressure being calculated at 15, 30, 45 and 60 min. Studies were performed on unoperated rats and rats with their submandibular glands removed (sialadenectomized).
The results shown in Table 1 are the averages of three different experiments using the protocol defined above. The data shown represent the average decrease in MABP (dec MABP) and the % Decrease in MABP over the 60 minutes following LPS administration. SGP-S (100μg/kg) and SGP-T (100 μg/kg) were administered 90 min. before LPS. […] Neither SGP-T nor SGP-S, when given prior to the LPS challenge, had appreciable effects on MABP.
Overall, SGP-T reduced by 60% the decrease and the percent decrease in MABP induced by endotoxin, relative to pre-LPS values. SGP-S, on the other hand, had no effect on the shock induced by endotoxin in unoperated rats.
The dose-response relationship of the inhibitory effect of SGP-T and SGP-S on endotoxin-induced hypotension was also examined and the results are shown in FIG. 1.

[2] = tested on: Sprague-Dawley rats sensitized with Nippostrongylys brasiliensis; assay: antigen-induced anaphylactic hypotension, Nippostrongylus brasiliensis-sensitized rats; assay type: in vivo, rat; details: given 10 minutes prior to worm antigen (100 worm equivalents)
Procedure: The effect of SGP-T on antigen-induced anaphylactic hypotension was examined in Sprague-Dawley rats sensitized 5 weeks previously with the nematode parasite Nippostrongylys brasiliensis. Under pentobarbital anesthesia, worm antigen (100 worm equivalents) was injected and arterial blood pressure was followed for 1 hour.

[3] = tested on: neutrophils from carrageenin-soaked sponges; assay: superoxide production by neutrophils from carrageenin-soaked sponges of treated rats; assay type: in vivo, rat; details: intravenous SGP-T 4 hr. before implantation of the sponge
Procedure: Under halothane anaesthesia the sponge was removed from its subcutaneous site and the fluid was squeezed from it into a test tube. Following centrifugation at 2,000 g for 10 min, the exudate was decanted and the remaining cells were suspended in 4 ml of 0.9% saline, and their number determined using a Coulter Counter. One ml of the remaining cell suspension was extracted for use in the superoxide assay.
Neutrophils (10^6) were suspended in PBS buffer of the following composition: NaCl 137 mM, KCl 2.7 mM, Na2HPO4, 8.1 mM, KH2PO4 1.47 mM, CaCl2 1.19 mM, MgCl2 0.54 mM, glucose 7.5 mM and cytochrome C 1.5 mM (Sigma Chemical Co. St. Louis, […].) incubated at 37 C. Each sample was read along with a reference sample containing 1440 units of superoxide dismutase (Sigma) in a spectrophotometer (Hitachi, U200 spectrophotometer). The rate of superoxide production in response to 10^−7M phorbol myristate acetate (PMA) or 10^−5 M N-formyl-methionyl-leucyl-phenylalanine (fMLP) was then inferred from the slope. […]
Intravenous injections of SGP-T inhibited neutrophil influx into a carrageenin-soaked sponge in a dose-dependent manner (FIG. 4). When the ability of neutrophils obtained from the carrageenin-soaked sponges to generate superoxide anion was evaluated, those obtained from saline-treated rats were totally refractory to f MLP and phorbol myristate acetate (PMA).

[4] = tested on: human neutrophils; assay: superoxide anion production in vitro, human neutrophils; assay type: cell-based; details: for superoxide anion production: 10^−7M PMA
Procedure: Neutrophils (10^6) were suspended in PBS buffer of the following composition: NaCl 137 mM, KCl 2.7 mM, Na2HPO4, 8.1 mM, KH2PO4 1.47 mM, CaCl2 1.19 mM, MgCl2 0.54 mM, glucose 7.5 mM and cytochrome C 1.5 mM (Sigma Chemical Co. St. Louis, […].) incubated at 37 C. Each sample was read along with a reference sample containing 1440 units of superoxide dismutase (Sigma) in a spectrophotometer (Hitachi, U200 spectrophotometer). The rate of superoxide production in response to 10^−7M phorbol myristate acetate (PMA) or 10^−5 M N-formyl-methionyl-leucyl-phenylalanine (fMLP) was then inferred from the slope. (Derian et al., (1996), Biochemistry 35(4): 1265–9).
Neutrophils obtained either from carrageenin-soaked sponges implanted subcutaneously in rats, or from the blood of healthy human volunteers, were preincubated with various doses of SGP-T for 30 minutes, then stimulated with 10^−7M PMA and the rate of superoxide anion production determined. At doses less than 1 μM, SGP-T inhibited superoxide anion production by both rat and human neutrophils, although the rat neutrophils were approximately 10-fold less sensitive than human neutrophils to this inhibitor effect (FIG. 6). At higher doses of the peptide(>1 μM), an enhancement of superoxide anion production was evident with human neutrophils.
At 0.001 and 0.01 μM SGP-T, O2^− production was inhibited by 15 to 20% in human neutrophils, while 10-fold higher concentrations were required for such inhibition with rat neutrophils. Much higher concentrations of SGP-T (10 and 20 μM) stimulated O2^− production by human neutrophils. Each value is presented as the mean ±SEM, and the number of experiments was between 6 and 12.

[5] = tested on: ovalbumin-sensitized Hooded-Listar rats; assay: anaphylactic perturbation of intestinal motility, Example 9; assay type: in vivo, rat; details: intravenously at 100 μg/kg, 20 min before challenge
Procedure: Animals and Tissue Preparation: Male Hooded-Listar rats were sensitized to egg albumin (ovalbumin; OA). Two weeks after sensitization, the animals had electrodes implanted into the muscle of the jejunum for recording muscle electrical activity. One week later, the fasted rats received SGP-T or an analogue, either intravenously (injection via penile vein under halothane anaesthesia) or orally (via gastric tube), 20 min before challenge with OA, or bovine serum albumin as control, by intragastric administration.
The disruption of intestinal migrating myoelectric complexes (MMCs) (Scott et al., (1988), J. Physiol., v. 255, pp. G505–511), a measure of intestinal activity, and the presence of diarrhea were used as biological measurements of anaphylaxis.

[6] = peptide 100 μg/kg 90 min before LPS 3.5 mg/kg iv

NH2-Thr-Asp-Ile-Phe-Glu-Gly-Gly-COOH (H-TDIFEGG-OH) [SGP-T, submandibular gland peptide T, TDIFEGG]
effect on drop in MABP / shock induced by endotoxin [1]: reduced the drop in MABP
optimal dose for reducing LPS-induced hypotension [1]: higher than in operated animals
% Dec = percent decrease in MABP relative to MABPbef [1, 6]: −11.6%
MABPaft = average MABP for 60 mins after LPS injection [1, 6]: 99.6 ± 3.8 mm Hg
dec MABP = decrease in MABP after LPS relative to MABPbef [1, 6]: −13.6 ± 2.9 mm Hg
reduction of the decrease and the percent decrease in MABP induced by endotoxin ([1]; relative to pre-LPS values): 60%
protection against anaphylactic hypotension [2]: dose-dependently protected
superoxide generation in response to fMLP and PMA by sponge neutrophils [3]: able to generate substantial amounts of superoxide
O2− production ([4]; 10 and 20 μM): stimulated
superoxide anion production ([4]; doses less than 1 μM): inhibited
superoxide anion production ([4]; higher doses (>1 μM)): enhancement
intestinal anaphylaxis induced by OA [5]: prevented or reduced
